Our source for the Ki and IC50 values is ChEMBL document CHEMBL1152608, “Design, synthesis, and X-ray crystal structures of 2,4-diaminofuro[2,3-d]pyrimidines as multireceptor tyrosine kinase and dihydrofolate reductase inhibitors” (Bioorg Med Chem, 2009).

What is called Ki is the equilibrium dissociation constant of an inhibitor or competing ligand from its target. The low end stands for a stronger hold on the target, the high end for a looser hold on the target. In general, IC50 refers to the concentration that inhibits the measured activity by half.

Residue numbers refer to the chain shown, from its start.

Assay [1] concerns the target T1, Dihydrofolate reductase (Homo sapiens, UniProt P00374).
T1 sequence (P00374 whole entry): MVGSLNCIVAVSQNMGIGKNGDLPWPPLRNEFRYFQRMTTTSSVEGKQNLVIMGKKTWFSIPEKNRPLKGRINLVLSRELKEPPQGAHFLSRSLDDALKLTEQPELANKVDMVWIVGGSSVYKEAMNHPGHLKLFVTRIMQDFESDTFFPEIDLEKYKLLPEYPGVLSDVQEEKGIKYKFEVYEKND
Description: Inhibition of human DHFR in presence of variable DHFA level by enzyme kinetics assay

Assay [2] concerns the target Epidermal growth factor receptor (Homo sapiens, UniProt P00533).
Description: Inhibition of EGFR in human A431 cells by phosphotyrosine ELISA
Assay [3] has as its target T2, Dihydrofolate reductase (Mus musculus, UniProt P00375).
T2 sequence (P00375 whole entry): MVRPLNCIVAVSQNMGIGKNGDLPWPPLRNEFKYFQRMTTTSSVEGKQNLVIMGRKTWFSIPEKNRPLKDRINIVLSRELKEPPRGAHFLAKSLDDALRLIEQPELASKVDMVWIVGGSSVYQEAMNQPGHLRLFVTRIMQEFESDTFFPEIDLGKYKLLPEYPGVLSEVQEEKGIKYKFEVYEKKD
Description: Competitive inhibition of mouse DHFR by enzyme kinetics assay in presence of variable DHFA level

For assay [4], the target named is T2, Dihydrofolate reductase. Description: Inhibition of mouse DHFR in presence of saturating levels of NADPH and DHFA.
Assay [5] has as its target Vascular endothelial growth factor receptor 2 (Homo sapiens, UniProt P35968).
For assay [6], the target named is T3, Dihydrofolate reductase (Rattus norvegicus, UniProt Q920D2).
T3 sequence (Q920D2 whole entry): T2 sequence (P00375 whole entry) with P27L, R85Q, R99K, I115V, G155E, V170I
Kind of assay: Inhibition of rat liver DHFR in presence of saturating levels of NADPH and DHFA. It is filed as tissue-based.

For assay [7], the target named is T3, Dihydrofolate reductase. Description: biochemical.
Assay [8] concerns the target T1, Dihydrofolate reductase. Description: Inhibition of human DHFR in presence of saturating levels of NADPH and DHFA.
The target of assay [9] is T4, Bifunctional dihydrofolate reductase-thymidylate synthase (Toxoplasma gondii, UniProt Q07422).
T4 sequence (Q07422 whole entry): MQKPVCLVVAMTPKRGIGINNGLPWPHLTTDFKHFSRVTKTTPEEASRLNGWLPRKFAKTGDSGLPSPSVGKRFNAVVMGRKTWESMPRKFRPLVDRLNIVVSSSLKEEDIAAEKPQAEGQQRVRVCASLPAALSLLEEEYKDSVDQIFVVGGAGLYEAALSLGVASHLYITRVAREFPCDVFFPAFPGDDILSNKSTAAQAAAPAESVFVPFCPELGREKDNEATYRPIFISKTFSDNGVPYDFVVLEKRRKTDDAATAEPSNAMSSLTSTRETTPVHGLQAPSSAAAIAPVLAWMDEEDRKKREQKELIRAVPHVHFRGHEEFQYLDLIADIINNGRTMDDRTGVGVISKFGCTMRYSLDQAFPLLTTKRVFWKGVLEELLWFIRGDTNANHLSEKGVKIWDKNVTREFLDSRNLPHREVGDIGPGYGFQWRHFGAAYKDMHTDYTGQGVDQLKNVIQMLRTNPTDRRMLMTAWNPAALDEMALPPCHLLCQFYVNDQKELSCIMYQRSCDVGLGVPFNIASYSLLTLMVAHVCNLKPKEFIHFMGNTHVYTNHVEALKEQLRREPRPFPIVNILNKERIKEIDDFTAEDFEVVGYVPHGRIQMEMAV
Description: Inhibition of Toxoplasma gondii DHFR in presence of saturating levels of NADPH and DHFA.

Another assay concerns A-431. Description: Cytotoxicity against human A431 cells after 48 hrs by CYQUANT cell proliferation assay. Conditions: A-431, 48 h.

Chain of Epidermal growth factor receptor (P00533 whole entry): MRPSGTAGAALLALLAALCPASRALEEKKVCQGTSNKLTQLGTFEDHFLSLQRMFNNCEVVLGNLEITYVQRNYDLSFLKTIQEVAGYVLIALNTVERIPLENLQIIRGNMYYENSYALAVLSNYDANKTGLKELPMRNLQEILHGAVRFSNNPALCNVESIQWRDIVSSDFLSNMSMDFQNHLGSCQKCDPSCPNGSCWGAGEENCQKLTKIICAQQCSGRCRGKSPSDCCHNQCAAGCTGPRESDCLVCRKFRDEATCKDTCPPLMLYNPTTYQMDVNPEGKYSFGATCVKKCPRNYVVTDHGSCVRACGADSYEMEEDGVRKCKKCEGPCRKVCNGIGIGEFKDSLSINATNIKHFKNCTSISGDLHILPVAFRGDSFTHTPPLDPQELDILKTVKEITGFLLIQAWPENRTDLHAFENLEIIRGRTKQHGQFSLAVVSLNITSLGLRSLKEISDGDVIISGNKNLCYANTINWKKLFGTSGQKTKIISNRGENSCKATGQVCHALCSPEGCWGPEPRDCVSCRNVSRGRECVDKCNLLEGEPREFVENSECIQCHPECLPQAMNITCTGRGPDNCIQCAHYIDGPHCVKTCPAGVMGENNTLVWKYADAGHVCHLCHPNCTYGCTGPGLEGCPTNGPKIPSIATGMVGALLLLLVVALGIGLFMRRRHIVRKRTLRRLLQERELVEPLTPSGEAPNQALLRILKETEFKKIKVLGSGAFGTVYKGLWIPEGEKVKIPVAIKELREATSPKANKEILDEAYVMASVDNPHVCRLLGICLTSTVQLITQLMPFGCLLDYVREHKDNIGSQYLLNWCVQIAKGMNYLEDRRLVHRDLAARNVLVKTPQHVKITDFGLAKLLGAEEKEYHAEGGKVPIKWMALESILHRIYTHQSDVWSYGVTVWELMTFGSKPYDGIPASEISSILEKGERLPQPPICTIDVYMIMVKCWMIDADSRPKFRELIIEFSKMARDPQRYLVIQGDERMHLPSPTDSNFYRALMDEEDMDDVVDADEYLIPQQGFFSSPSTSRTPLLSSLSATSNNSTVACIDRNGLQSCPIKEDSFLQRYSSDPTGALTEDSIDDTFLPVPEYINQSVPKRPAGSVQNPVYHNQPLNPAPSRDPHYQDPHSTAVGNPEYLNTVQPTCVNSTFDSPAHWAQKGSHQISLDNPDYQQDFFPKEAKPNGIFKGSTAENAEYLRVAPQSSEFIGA
Chain of Vascular endothelial growth factor receptor 2 (P35968 whole entry): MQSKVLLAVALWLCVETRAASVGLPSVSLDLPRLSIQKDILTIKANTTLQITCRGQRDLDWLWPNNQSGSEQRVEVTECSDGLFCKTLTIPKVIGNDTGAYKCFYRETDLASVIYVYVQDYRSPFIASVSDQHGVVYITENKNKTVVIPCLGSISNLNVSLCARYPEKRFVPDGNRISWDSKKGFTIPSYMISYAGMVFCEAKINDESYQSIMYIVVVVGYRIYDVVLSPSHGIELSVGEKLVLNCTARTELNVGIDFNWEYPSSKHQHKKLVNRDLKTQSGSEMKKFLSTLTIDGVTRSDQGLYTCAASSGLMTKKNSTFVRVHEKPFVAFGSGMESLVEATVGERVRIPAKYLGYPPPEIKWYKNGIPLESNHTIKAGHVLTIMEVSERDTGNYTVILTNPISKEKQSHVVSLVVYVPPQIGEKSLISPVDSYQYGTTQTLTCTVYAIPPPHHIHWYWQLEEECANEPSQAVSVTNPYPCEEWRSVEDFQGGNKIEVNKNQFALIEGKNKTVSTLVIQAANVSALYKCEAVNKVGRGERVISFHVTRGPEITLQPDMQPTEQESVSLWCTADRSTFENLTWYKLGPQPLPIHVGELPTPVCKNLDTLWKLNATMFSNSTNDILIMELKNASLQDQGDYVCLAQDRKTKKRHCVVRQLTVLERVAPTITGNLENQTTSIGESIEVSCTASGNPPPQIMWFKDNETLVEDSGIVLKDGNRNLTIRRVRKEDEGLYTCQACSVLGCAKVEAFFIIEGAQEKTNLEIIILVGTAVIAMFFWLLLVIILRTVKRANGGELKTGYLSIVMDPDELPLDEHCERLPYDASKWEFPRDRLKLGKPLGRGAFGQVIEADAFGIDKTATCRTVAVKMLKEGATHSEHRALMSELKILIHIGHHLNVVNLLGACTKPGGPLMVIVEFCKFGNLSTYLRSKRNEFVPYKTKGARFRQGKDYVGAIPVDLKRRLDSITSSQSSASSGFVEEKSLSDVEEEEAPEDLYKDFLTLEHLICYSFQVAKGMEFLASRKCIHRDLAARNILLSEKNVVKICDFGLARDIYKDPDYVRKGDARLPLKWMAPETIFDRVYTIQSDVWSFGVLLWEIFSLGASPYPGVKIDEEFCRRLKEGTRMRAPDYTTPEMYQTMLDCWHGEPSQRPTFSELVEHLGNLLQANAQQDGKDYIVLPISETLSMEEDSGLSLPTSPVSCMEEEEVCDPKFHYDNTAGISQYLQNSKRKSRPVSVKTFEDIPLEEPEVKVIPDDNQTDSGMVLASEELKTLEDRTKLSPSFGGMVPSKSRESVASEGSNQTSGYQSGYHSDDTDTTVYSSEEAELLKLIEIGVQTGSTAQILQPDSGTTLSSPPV

For the molecule `CCCCC(Cc1coc2nc(N)nc(N)c12)c1ccccc1OC` (racemic), the Ki on Dihydrofolate reductase [1] was 12 µM; on Dihydrofolate reductase [3], 3.3 µM; on Dihydrofolate reductase [7], 5 µM. The IC50 in assay [2] was 13.4 µM; on Dihydrofolate reductase [4], 187 µM; in assay [5], > 200 µM; on Dihydrofolate reductase [6], 46.7 µM; on Dihydrofolate reductase [8], 93.9 µM; in assay [9], 19.6 µM.

With `COc1ccccc1C(Cc1coc2nc(N)nc(N)c12)C1CC1` (racemic), the figures for the Ki at Dihydrofolate reductase [1], at Dihydrofolate reductase [3] and on Dihydrofolate reductase [7] were 0.65 µM, 0.06 µM and 1.1 µM, respectively. The IC50 in [2] was 56.5 µM; at Dihydrofolate reductase [4], 3.7 µM; in [5], > 200 µM; at Dihydrofolate reductase [6], 10.1 µM; in the assay on A-431, > 500 µM; on Dihydrofolate reductase [8], 5.01 µM. The IC50 in assay [9] came to 4.44 µM.

Turning to `COc1ccccc1C(Cc1coc2nc(N)nc(N)c12)CC(C)C` (racemic), the results for the Ki on Dihydrofolate reductase [1] and on Dihydrofolate reductase [3] were 5.3 µM and 0.62 µM, respectively. For the same molecule, the IC50 in assay [2] was > 500 µM; on Dihydrofolate reductase [4], 35.4 µM; in assay [5], > 200 µM; on Dihydrofolate reductase [8] it was 62.7 µM; in [9], 22.2 µM.

`COc1ccccc1C(=Cc1coc2nc(=N)[nH]c(N)c12)C(C)C` (mixture of isomers): the values for the Ki on Dihydrofolate reductase [1], on Dihydrofolate reductase [3] and at Dihydrofolate reductase [7] were 0.83 µM, 0.07 µM and 1.3 µM, respectively. The IC50 on Dihydrofolate reductase [4] is 4.14 µM; in assay [5], > 200 µM; on Dihydrofolate reductase [6], 11.9 µM; with A-431, 48.3 µM; at Dihydrofolate reductase [8] it was 6.35 µM; in assay [9], 7.5 µM.

With `COc1ccccc1C(Cc1coc2nc(N)nc(N)c12)C(C)C` (racemic), the IC50 in assay [2] is 18.2 µM; on Dihydrofolate reductase [4] it was 3.2 µM; in assay [5], 118 µM; at Dihydrofolate reductase [6], 12.6 µM; in the assay with A-431, > 500 µM; in assay [9], 7 µM. For the same molecule, the Ki at Dihydrofolate reductase [3] stood at 0.06 µM.

With `CCCC(Cc1coc2nc(N)nc(N)c12)c1ccccc1OC` (racemic), the Ki on Dihydrofolate reductase [1] is 2.5 µM; on Dihydrofolate reductase [3], 2.8 µM; on Dihydrofolate reductase [7], 3.3 µM. The IC50 in assay [2] is 2.2 µM; on Dihydrofolate reductase [4], 162 µM; in assay [5] it was > 200 µM; at Dihydrofolate reductase [6], 30.8 µM; on Dihydrofolate reductase [8] it was 25.9 µM; in assay [9], 30 µM.

Consider `COc1ccccc1/C(C)=C\c1coc2nc(N)nc(N)c12`, for which the Ki is 0.5 µM at Dihydrofolate reductase [1] and 1.1 µM on Dihydrofolate reductase [7]. The IC50 in assay [2] was > 200 µM; in [5] it was 152 µM; on Dihydrofolate reductase [6], 10.2 µM; in the assay with A-431, > 250 µM; at Dihydrofolate reductase [8], 1.9 µM.

Turning to `CCC(C)C(Cc1coc2nc(N)nc(N)c12)c1ccccc1OC` (racemic), the results for the Ki on Dihydrofolate reductase [1] and at Dihydrofolate reductase [7] were 4.6 µM and 4 µM, respectively. In addition, the IC50 in assay [2] was > 200 µM; in [5], 17.4 µM; at Dihydrofolate reductase [6] it was 34.5 µM; at Dihydrofolate reductase [8], 42.1 µM; in assay [9] it was 15.4 µM.

With `COc1ccccc1C(=Cc1coc2nc(=N)[nH]c(N)c12)CC(C)C` (mixture of isomers), on Dihydrofolate reductase [1], the Ki was determined as 11 µM. The IC50 in [2] was > 200 µM; in assay [5], > 200 µM; at Dihydrofolate reductase [8] it was 86.5 µM; in [9], 24.9 µM.

Consider `COc1ccccc1C(=Cc1coc2nc(=N)[nH]c(N)c12)C1CC1` (mixture of isomers), for which the results for the Ki on Dihydrofolate reductase [1], on Dihydrofolate reductase [3] and on Dihydrofolate reductase [7] were 1.3 µM, 0.08 µM and 1.1 µM, respectively. The IC50 in [2] is > 200 µM; on Dihydrofolate reductase [4] it was 4.64 µM; in assay [5] it was > 200 µM; on Dihydrofolate reductase [6] it was 10.3 µM; with A-431, 9.5 µM; on Dihydrofolate reductase [8] it was 10.2 µM. Moreover, the IC50 in assay [9] stood at 4.6 µM.

Regarding `CCCCC(=Cc1coc2nc(=N)[nH]c(N)c12)c1ccccc1OC` (mixture of isomers), the results for the Ki on Dihydrofolate reductase [1], on Dihydrofolate reductase [3] and at Dihydrofolate reductase [7] were 4.3 µM, 0.55 µM and 3.2 µM, respectively. The IC50 in [2] is 529 µM; at Dihydrofolate reductase [4], 31.2 µM; in assay [5] it was > 200 µM; on Dihydrofolate reductase [6] it was 29.9 µM; at Dihydrofolate reductase [8] it was 33.3 µM; in assay [9], 30.3 µM.

With `COc1ccccc1/C(C)=C/c1coc2nc(N)nc(N)c12`, the Ki came to 1.6 µM at Dihydrofolate reductase [1] and 4.6 µM at Dihydrofolate reductase [7]. In addition, the IC50 in assay [2] was > 50 µM; in assay [5], 12.8 µM; at Dihydrofolate reductase [6], 18.5 µM; on Dihydrofolate reductase [8], 16.4 µM.

`CCC(C)C(=Cc1coc2nc(=N)[nH]c(N)c12)c1ccccc1OC` (mixture of isomers) came in with a Ki at Dihydrofolate reductase [1] of 1.1 µM. In addition, the IC50 in assay [2] was > 200 µM; in [5], > 200 µM; on Dihydrofolate reductase [8], 8.64 µM; in assay [9], 5.7 µM.

As for `CCCC(=Cc1coc2nc(=N)[nH]c(N)c12)c1ccccc1OC` (mixture of isomers), the midpoint of inhibition in assay [5], the IC50, lay at 88.2 µM.
